Source: patent US20080227838A1, “Method for neuroprotection with glycoluril derivatives” (Cereprotec Incorporated, priority 2007, published 2008)

What was measured:
[1] = system: stress and hypoxia; conditions: 100-1000 mg/kg, cited from earlier work
[2] = in vivo; cited from earlier work
[3] = system: head trauma in mice; experiment: Brain edema (tissue water content) after closed head injury in mice; assay type: in vivo
Protocol: (§1) The cerebroprotective effect of mebicar was assessed in a model of head trauma in mice (Beni-Adani et al., 2001). This type of trauma produces brain edema (i.e. increase in water content), breakdown of the blood brain barrier (BBB) and clinical dysfunction. The clinical status of the mice is evaluated 1 and 24 hours after injury along with measurement of the extent of cerebral edema. The neurological deficit, assessed by a set of criteria termed the Neurological Severity Score (NSS), is maximal at 1 hour after the initiation of head trauma. The NSS slowly decreases over time from the initiation of head trauma, with the gradual spontaneous recovery of the mice.
(i) Induction of closed head injury (CHI) in a mice model. Male Sabra mice (strain from Hebrew University of Jerusalem, Israel), weighing 35 to 45 g, were used. CHI was induced under ether anesthesia. A metal rod weighing 333 g was allowed to free fall from a prefixed height (at 3 cm for a mouse weighing 28-32 g) over the exposed skull covering the left hemisphere in the midcoronal plane. The tip of the rod is covered with silicone, and it delivers the impact to the head that is fixed on the bottom plane of the trauma device. Sham-operated mice were anesthetized, their skull exposed, but trauma was not induced. After CHI the mice were assigned to vehicle or mebicar treatment.
(iii) Evaluation of water content (brain edema). The extent of cerebral edema was evaluated by determining the tissue water content in the injured hemisphere, as previously described (Beni-Adani et al., 2001). Briefly, mice were sacrificed 24 h after injury, the time of peak edema formation, and brain cortical samples of ˜20 mg were cut from the left (traumatized) and right (contralateral) hemispheres, from the site bordering the lesion. The right (non-injured) hemisphere was used as an internal control. Samples were weighed before and after drying in a desiccated oven for 24 h at 95° C. After weighing the “dried” sections, the brain water content was calculated as % H2O=[(wet weight−dry weight)×100]/wet weight.
(iv) Evaluation of drug effect on brain edema. In order to evaluate the effect of a drug, and to do it in a “clinical-relevant” setting, the drug is given 1 h after the injury, immediately after the initial assessment of NSS. This protocol allows a homogenous distribution of the mice between the drug and vehicle treatments, and ensures similar severity of injury in both groups. NSS is then evaluated again at 24 h after injury, and ΔNSS is calculated. The mice are then sacrificed, their brain removed and cortical segments from the site of injury, and contralaterally, are taken for evaluation of edema, as described above in (iii). […]

[4] = system: head trauma in mice; experiment: Clinical evaluation (Neurological Severity Score) after closed head injury in mice; assay type: in vivo; conditions: mebicar 750 mg/kg i.p., 5 mice out of 9, spontaneous recovery 2 out of 10 (20%)
Protocol: as §1
(i) Induction of closed head injury (CHI) in a mice model. […]
(ii) Clinical evaluation of the mice after CHI. Mice were evaluated to define the severity of injury and functional recovery by using a set of clinical criteria. […]
For assessment of posttraumatic neurological impairment, a Neurological Severity Score (NSS) previously described, modified and validated, was used (Shapira et al. 1988; Chen et al. 1996; Beni-Adani et al. 2001). […] The ΔNSS, calculated as the difference between NSS at 1 h and the NSS at any later time-point, is a parameter which reflects the degree of spontaneous recovery following brain injury, as described (Chen et al., 1996; Yatsiv et al., 2002; Beni-Adani et al., 2001). […]

[5] = in vivo; cited from earlier work; remark: listed apart in the source
[6] = system: neuroactive amino acids in the animal's brain; conditions: cited from earlier work
[7] = system: myocardial contractility; conditions: in vivo; cited from earlier work
[8] = system: shock; conditions: in vivo; cited from earlier work
[9] = system: experimental arrhythmias; conditions: in vivo; cited from earlier work

In the case of `CN1C(=O)N(C)C2C1N(C)C(=O)N2C` (centres unmarked) [mebicar, 2,4,6,8-tetramethyl-2,4,6,8-tetraazabicyclo[3.3.0]-octane-3,7-dione], the “effect on parameters of body function under extreme conditions” value ([1]; stress and hypoxia) is listed as “protective action”, the “effect on muscle tone, movement coordination, working capacity” value ([1]; tested animals) is listed as “without affecting the muscle tone, movement coordination or working capacity” and the metabolism [2] is listed as “not metabolized”. The “time to leave the organism” value [2] was no more than 24 h, the “Water content in the brain % (contralateral hemisphere)” value ([3]; mice, closed head injury, mebicar 750 mg/kg intraperitoneally 1 h after injury, 24 h after injury, contralateral hemisphere, M ± SE) was 77.9 ± 0.27% and the “Water content in the brain % (traumatized area)” value ([3]; mice, closed head injury, mebicar 750 mg/kg intraperitoneally 1 h after injury, 24 h after injury, traumatized area, M ± SE) was 80.7 ± 0.41%. The “effect on water content of the contralateral hemisphere” value ([3]; traumatized mice, mebicar 750 mg/kg i.p.) was “decreased water content up to normal parameters”, the “less water accumulated in the traumatized hemisphere of the brain” value ([3]; traumatized mice, mebicar 750 mg/kg i.p., versus untreated traumatized mice) was “About 35%” and the “recovery in clinical function (share of mice)” value [4] was 55.5%. For the same compound, the toxicity [5] was “extremely low toxicity”, the “change of balance of neuroactive amino acids in the brain” value [6] was “raising the content of gamma-butyric acid” and the “effect on myocardial contractility” value [7] was “increase the myocardial contractility”. The “effect in shock; acid-base and oxygen homeostasis” value [8] was “antishock action” and the “effect in experimental arrhythmias” value [9] was “protective action”.
